Measured values published in patent publication US4304679A, “Detergent product containing deodorant compositions” (priority 1978, dated 1981).

target: T1, lipoxidase (ECl.13.1.13) (Glycine max, UniProt P08170); test: Lipoxidase test: inhibition of the oxidation of linoleic acid by lipoxidase; assay type: biochemical; conditions: test substrate made with 0.5% by weight solution of material in ethanol; pH 9.0 borate buffer; 234 nm
T1 sequence (P08170 1-839): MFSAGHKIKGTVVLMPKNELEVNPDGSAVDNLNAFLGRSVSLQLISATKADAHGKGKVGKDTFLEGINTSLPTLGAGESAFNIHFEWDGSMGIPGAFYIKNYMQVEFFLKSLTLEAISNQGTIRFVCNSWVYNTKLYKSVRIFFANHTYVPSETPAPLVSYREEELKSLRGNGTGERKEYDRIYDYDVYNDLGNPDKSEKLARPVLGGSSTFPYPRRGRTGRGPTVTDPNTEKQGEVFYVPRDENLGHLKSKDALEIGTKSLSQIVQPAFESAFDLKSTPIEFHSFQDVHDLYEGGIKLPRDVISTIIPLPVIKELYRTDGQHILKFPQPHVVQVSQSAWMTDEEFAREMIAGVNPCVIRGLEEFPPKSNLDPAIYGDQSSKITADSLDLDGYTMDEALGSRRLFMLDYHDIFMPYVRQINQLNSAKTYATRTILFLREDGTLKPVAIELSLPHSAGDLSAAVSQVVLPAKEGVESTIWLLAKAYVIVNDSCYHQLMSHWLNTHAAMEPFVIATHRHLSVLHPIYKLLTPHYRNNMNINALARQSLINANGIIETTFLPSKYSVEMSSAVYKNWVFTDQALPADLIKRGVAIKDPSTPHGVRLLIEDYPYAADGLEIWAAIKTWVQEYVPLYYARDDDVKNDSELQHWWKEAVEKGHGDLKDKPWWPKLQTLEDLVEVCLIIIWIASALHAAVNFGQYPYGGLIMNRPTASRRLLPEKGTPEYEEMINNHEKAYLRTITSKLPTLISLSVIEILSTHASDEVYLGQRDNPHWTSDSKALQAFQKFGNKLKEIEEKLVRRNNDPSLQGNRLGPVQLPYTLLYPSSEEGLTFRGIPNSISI

Row | Substance | LIC (lipoxidase inhibiting capacity, % inhibition) [%]
1 | i-Nonyl acetate | 50
2 | Dimyrcetol | 16
3 | i-Nonyl formate | 19
4 | Tetrahydromuguol | 24
